In patent publication US7541363B2, “Microcrystal” (Kyowa Hakko Kirin Co., Ltd., priority 2003, dated 2009):
One block for each compound: values may come before it.

Tests used:
[1] = system: adenosine A2 receptor; settings: cited from earlier work
[2] = double bond (vinylene) moiety apt to be isomerized; cited from earlier work
[3] = Comparison of absorption in oral administration (plasma concentration); format: in vivo, male rats of SD strain; settings: male SD rats; for Cmax (maximum concentration in plasma): 0.3 mg/mL suspension in 0.5 w/v % methyl cellulose at 10 mL/kg, mean ± s.e.m., three rats
Method: Each of Crystal B (the average particle size of crystals: 181 μm) and Microcrystals B (the average particle size of crystals: 11 μm) obtained in Example 3 was suspended in a 0.5 w/v % aqueous solution of methyl cellulose to prepare a drug liquid (0.3 mg/mL) for administration. The resulting drug liquid was orally administered to male rats of SD strain (body weight: 209 to 233 g; Nippon Charles River) at the dose of 10 mL/kg. Blood of the rat (about 0.3 mL for each time) was sequentially collected from tail vein by using a heparin-treated capillary tube 0.25, 0.5, 1, 2, 4, 6, 8, 12 and 24 hour(s) after the administration. The resulting blood was centrifuged (1,950×g, 10 minutes, 4° C.) and plasma was separated. Concentration of “Compound 1” in the resulting plasma was measured by HPLC and mean value from three rats was calculated. Maximum concentration in plasma (Cmax), the area under the plasma curve of concentration-time curve between the administration and the point which can be determined quantitatively finally (AUC0-t) and the area under the plasma curve of concentration-time curve between the administration and infinitive time (AUC0-∞), of case in which each of Crystals B and Microcrystals B were orally administered to the rat, are shown in Table 2. Incidentally, conditions for the measurement by HPLC are as follows. Instrument for analysis: Series L-7000 (manufactured by Hitachi) Column: Ultron VX-ODS (φ4.6×150 mm) Column temperature: 30° C. Mobile phase: 10 mmol/L acetate buffer (pH 5.7)/acetonitrile=53/47 […] Detecting condition: UV 360 nm

[4] = Crystallinity by powder X-ray diffraction; format: physicochemical
Excerpt: Although there is no particular limitation for the “microcrystal(s) of (E)-8-(3,4-dimethoxystyryl)-1,3-diethyl-7-methyl-3,7-dihydro-1H-purine-2,6-dione having an average particle size of less than 50 μm” (that is “microcrystal(s) of Compound 1”) of the present invention so far as it is the crystalline Compound 1 having an average particle size of less than 50 μm, among them microcrystal(s) having an average particle size of 0.5 to 20 μm is/are preferable. The “microcrystal(s) of Compound 1” having a crystallinity of 20% or more is/are more preferable. Among them, the “microcrystal(s) of Compound 1” having a crystallinity of 30% or more is/are still more preferable and the “microcrystal(s) of Compound 1” having a crystallinity of 40% or more is/are most preferable. Incidentally, the average particle size thereof can be measured by using, for example, a laser diffraction/scattering particle size distribution analyzer (e.g., Mastersizer 2000, Ver. 2.00J; manufactured by Malvern Instruments), an image analyzer (e.g., Luzex® AP; manufactured by Nileco) or the like, and can be calculated as the mean of the particle size distribution. The crystallinity thereof can be calculated by measuring the integral intensity of the diffraction peak at a specific angle of diffraction 2θ by using a powder X-ray diffractmeter (e.g., JDX 8030; manufactured by Nippon Denshi).
The crystallinity of Compound 1 in each Sample (hereinafter, may be just referred to as the crystallinity) was calculated by the following method after measuring the diffraction peak of each Sample by changing from 0° to 40° at the angle of diffraction 2θ by a powder X-ray diffractmeter.
A calibration curve used for the calculation of the relative crystallinity was prepared by measuring the integral intensity of the diffraction peak at angle of diffraction 2θ=about 16° using physical mixtures prepared in various ratios and then plotting the ratios of amounts of the “crystalline Compound 1” in the physical mixtures against the integral intensities of the diffraction peaks respectively.
An integral intensity of the diffraction peak of the sample at the angle of diffraction 2θ=about 16° was measured. An amount of the “crystalline Compound 1” in each sample was calculated from the measured integral intensity on the basis of the above-described calibration curve, and the relative crystallinity (%) of each sample was determined from the following formula as the ratio of the amount of “Compound 1” (“crystalline Compound 1” and “an amorphous Compound 1”) against the amount of the “crystalline Compound 1”. A crystallinity (%) was determined by a proportional calculation from the relative crystallinity (%) determined hereinabove and the crystallinity (87.2%) of the unpulverized “crystals of Compound 1”. Relative Crystallinity (%)=(Amount of the “crystalline Compound 1”/Amount of “Compound 1”)×100 <Method for Measurement of Photostability>

[5] = Solubility in water at room temperature against elapsed time; format: physicochemical; settings: 2 mg in water (200 mL) at room temperature
Method: By using Crystals A (the average particle size of crystals: 167 μm, 2 mg) and Microcrystals A (the particle size of microcrystals D100=8.7 μm, 2 mg) obtained in Example 2, the solubility of each of them in water (200 mL) at room temperature was measured.

[6] = Aggregation and dispersing property during steps for preparing pharmaceutical formulation; format: physicochemical
[7] = crystals synthesized by the prior-art process; cited from earlier work
[8] = Photostability: residual ratio of Compound 1 after irradiation under a fluorescent lamp; format: physicochemical; settings: no HPMC, unpulverized; about 5,000 lx fluorescent lamp, 8 hours
Method: Photostability of each sample was traced by measuring the residual ratio (%) of “Compound 1” in the sample according to the following method.
Transparent glass vials, in which the samples were weighed and filled, were stored at about 5,000 lx under a fluorescent lamp, and each sample was sampled 8 hours after the irradiation. The sampled sample was dissolved in a mixed solvent of water and acetonitrile (water:acetonitrile=60:40), and then the amount of “Compound 1” in the sample was determined quantitatively by using a high-performance liquid chromatography (HPLC). Amount of “Compound 1” before irradiation was defined as 100% and the amount of “Compound 1” after irradiation thereto was calculated as the residual ratio (%).
Conditions for the measurement by HPLC are as follows.
Instrument for analysis: Series LC-6 (manufactured by Shimadzu)
Column: Inertsil ODS-2 (φ6×150 mm)
Column temperature: 25° C.
Mobile phase: 50 mmol/L KH2PO4 (pH 6.1, KOH)/acetonitrile=60/40
Detecting condition: UV 248 nm

[9] = drug substance crystals as obtained

Compound: CCn1c(=O)c2c(nc(/C=C/c3ccc(OC)c(OC)c3)n2C)n(CC)c1=O [Compound 1, (E)-8-(3,4-dimethoxystyryl)-1,3-diethyl-7-methyl-3,7-dihydro-1H-purine-2,6-dione]
adenosine A2 receptor antagonistic activity [1]: shows an adenosine A2 receptor antagonistic activity | stability under light [2]: unstable particularly under light

Compound: CCn1c(=O)c2c(nc(/C=C/c3ccc(OC)c(OC)c3)n2C)n(CC)c1=O [Crystals B, (E)-8-(3,4-dimethoxystyryl)-1,3-diethyl-7-methyl-3,7-dihydro-1H-purine-2,6-dione]
Cmax (maximum concentration in plasma) [3]: 72.6 ± 31.7 ng/mL | crystallinity [4, 9]: 71.6%

Compound: CCn1c(=O)c2c(nc(/C=C/c3ccc(OC)c(OC)c3)n2C)n(CC)c1=O [Microcrystals A, (E)-8-(3,4-dimethoxystyryl)-1,3-diethyl-7-methyl-3,7-dihydro-1H-purine-2,6-dione]
solubility of Compound 1 [5]: good solubility | dissolving velocity ([5]; compared with Crystals A): quick dissolving velocity as compared to Crystals A | aggregation of the crystals during steps for preparing pharmaceutical formulation [6]: no phenomenon of aggregation | dispersing property ([6]; compared with Crystals A): excellent dispersing property as compared to Crystals A | crystallinity [4, 9]: 84.6%

The next lines start with results.

Cmax (maximum concentration in plasma) [3]: 238 ± 4 ng/mL | crystallinity [4, 9]: 67.3%
Compound: CCn1c(=O)c2c(nc(/C=C/c3ccc(OC)c(OC)c3)n2C)n(CC)c1=O [Microcrystals B, (E)-8-(3,4-dimethoxystyryl)-1,3-diethyl-7-methyl-3,7-dihydro-1H-purine-2,6-dione]
absorption in oral administration ([3]; compared with Crystals B): better absorption in oral administration than Crystals B

Residual Rate of “Compound 1” [8]: 100.0% | crystallinity [4, 9]: 87.2% | crystallinity ([4]; no HPMC, unpulverized): 87.2%
Compound: CCn1c(=O)c2c(nc(/C=C/c3ccc(OC)c(OC)c3)n2C)n(CC)c1=O [Unpulverized “Crystals of Compound 1”, (E)-8-(3,4-dimethoxystyryl)-1,3-diethyl-7-methyl-3,7-dihydro-1H-purine-2,6-dione]
solubility in water [7]: low
